Entries after “also recorded” stand apart in the source; their conditions may differ.
Key:
[1] = system: Ovarian Cancer tumor cells; assay: EVs released by ovarian cancer cells undergoing cisplatin treatment (Western blot, RPPA); assay type: cell-based
Description: A) Ovarian Cancer tumor cells are treated with pulses of cisplatin, a common ovarian cancer therapeutic. EVs released by the cancer cells undergoing cisplatin treatment are isolated by differential ultracentrifugation and analyzed via Western Blot, mass spectrometry, and reverse phase protein array in order to determine potential pathways and markers that are indicative of cancer resistance. […] Additionally, the subpopulations are present with typical EV related tetraspanin markers.
In an embodiment, RPPA assays previously used for tissue lysates can be adapted for use with EV subpopulations.

eGFP-4T1 cells = assay: Mitophagy induction / mitochondrial EV fluorescent labelling (CCCP perturbation); assay type: cell-based, murine
From the text: To further verify that PINK1-associated EVs contained mitochondrial components via a orthogonal methods, we performed a functional perturbation in vitro to induce the cellular release of mitophagy-associated EVs. We treated sub-confluent eGFP-4T1 cells with a mitochondrial depolarization protonophore carbonyl cyanide m-chlorophenyl hydrazone (CCCP) (Villa et al., 2017) and added a permanent fluorescent label for active mitochondrial membranes with MitoTracker Deep Red (MTDR) (Chazotte, 2011). After 48 h, the cells reached 70% confluency and were harvested by differential ultracentrifugation.
Two 4T1-eGFP cell cultures were plated at 10^6 cells/ml. Untreated cells were left to grow for 5 days. Treated cells were stimulated with 10 nM of carbonyl cyanide 3-chlorophenylhydrazone (CCCP) (Sigma) and left to grow for 5 days. The supernatants were collected and EVs fractions were isolated by differential ultracentrifugation. The resulting 100K EVs were probed for anti-ARIH1 (Santa Cruz) by Western blot.
Two 4T1-eGFP-Puro cell cultures were plated at 10^6 cells/ml. Untreated cells were left to grow for 48 h. Treated cells were stimulated with 10 nM and 10 μM of CCCP and left to grow for 48 h. At 48 h, 50 nM of MitoTracker Deep Red (MTDR) (Thermo Fisher) was added to the media and left to sit overnight in the cell incubator. The supernatants were collected and EVs were isolated by differential ultracentrifugation. EVs subpopulations were plated at 30 μl and scanned for peak emission fluorescent intensity fluorescence at […] (absorbance/emission) for GFP and 635/675 nm (absorbance/emission) for MTDR on a Tecan safire2 plate reader.

irradiated tumor = conditions: mice; cited from earlier work

SMILES: N.N.[Cl][Pt][Cl] [cisplatin]
- RPPA ratio pre to post treatment, EGFR (pY1068) and Bax pathways ([1]; 2K EV population): greatly increased
- RPPA ratio pre to post treatment, Akt ([1]; 10K EV population): 11 fold
- RPPA pathways altered after treatment ([1]; 100K EV population): few pathways were altered
- LC3-I/II (autophagy) and PD-L1 in EV subpopulations, Western blot ([1]; post-treatment EVs compared to pre-treatment): upregulating

SMILES: N#CC(C#N)=NNc1cccc(Cl)c1 [CCCP, carbonyl cyanide m-chlorophenyl hydrazone]
- MitoTracker Deep Red (MTDR) in 100K EVs (eGFP-4T1 cells; MTDR fluorescence normalized to GFP by EV subpopulation): increased release of 100K EVs containing active mitochondrial molecules; also recorded: increasing levels
- ARIH1 presence in the 100K EVs (eGFP-4T1 cells; compared to no treatment, Western blot): induced ARIH1 presence
- release of CD81+/PINK1+ 100K EVs (eGFP-4T1 cells; increasing CCCP up to 10 μM (cytotoxic level), 48 h, Western blot): release of increased Parkin-independent mitophagy-containing 100K EVs; also recorded: increased release of CD81+/PINK1+ 100K EVs in a dose dependent manner; also recorded: increased export of PINK1 and MitoTracker

SMILES: CCN(CC)CCCC(C)Nc1ccnc2cc(Cl)ccc12 (centres unmarked) [chloroquine]
- response to radiation therapy (irradiated tumor): improves response

Source: patent publication US20240156931A1, “COLLECTION AND USES OF TISSUE RESIDENT INTERSTITIAL EXTRACELLULAR VESICLES” (priority 2022, published 2024)
